Patent publication US7709471B2, “Compounds” (AstraZeneca AB, priority 2006, dated 2010)

System: human colon tumour cell line HT29
Assay: Cellular Assay (phosphohistone H3 Ser10 mitotic marker, HT29)
Type: cell-based
Conditions: HT-29, 24 h, HT29 cells, read-out: IC50 (cellular assay, phosphohistone H3)
Procedure: Chromosome condensation in mitosis is accompanied by phosphorylation of histone H3 on serine 10.
After 24 hours, cells were fixed in 3.7% (v/v) formaldehyde then permeabilised and blocked for 10 minutes in 100 μl 0.5% (v/v) Triton X-100, 1% (w/v) bovine serum albumin (BSA) in phosphate buffered saline (PBS). […] The raw assay data were analysed by non-linear regression analysis and used to determine an IC50 value for each compound.

Row | SMILES | IC50 [nM]
1 | CCOc1cc(C(=O)NC2CCC(N(C)C)CC2)ccc1Nc1ncc2c(n1)N(C(C)C)CCC(=O)N2C (centres unmarked) [Example 286, N-(4-dimethylaminocyclohexyl)-3-ethoxy-4-[(6-methyl-5-oxo-2-propan-2-yl-2,6,9,11-tetrazabicyclo[5.4.0]undeca-7,9,11-trien-10-yl)amino]benzamide] | < 30000
2 | CCN1CCC(NC(=O)c2ccc(Nc3ncc4c(n3)N(C(C)C)CC(CC)(CC)C(=O)N4C)c(OC)c2)CC1 [Example 305, 4-[(4,4-diethyl-6-methyl-5-oxo-2-propan-2-yl-2,6,9,11-tetrazabicyclo[5.4.0]undeca-7,9,11-trien-10-yl)amino]-N-(1-ethyl-4-piperidyl)-3-methoxy-benzamide] | < 300
3 | COc1cc(C(=O)NCCN2CCCC2)ccc1Nc1ncc2c(n1)N(C1CCCC1)CC(C)(C)C(=O)N2C [Example 358, 4-[(2-cyclopentyl-4,4,6-trimethyl-5-oxo-2,6,9,11-tetrazabicyclo[5.4.0]undeca-7,9,11-trien-10-yl)amino]-3-methoxy-N-(2-pyrrolidin-1-ylethyl)benzamide] | < 300
4 | CCN1CCC(NC(=O)c2ccc(Nc3ncc4c(n3)N(C3CCCCC3)CCC(=O)N4C)c(OC)c2)CC1 [Example 423, 4-[(2-cyclohexyl-6-methyl-5-oxo-2,6,9,11-tetrazabicyclo[5.4.0]undeca-7,9,11-trien-10-yl)amino]-N-(1-ethyl-4-piperidyl)-3-methoxy-benzamide] | < 300
5 | CCOc1cc(C(=O)NC2CCN(C)CC2)c(F)cc1Nc1ncc2c(n1)N(C(C)C)CC(C)(C)C(=O)N2C [Example 296, 5-ethoxy-2-fluoro-N-(1-methyl-4-piperidyl)-4-[(4,4,6-trimethyl-5-oxo-2-propan-2-yl-2,6,9,11-tetrazabicyclo[5.4.0]undeca-7,9,11-trien-10-yl)amino]benzamide] | < 30000
6 | COc1cc(C(=O)N[C@@H]2CCN(C)C2)c(F)cc1Nc1ncc2c(n1)N(C(C)C)CC(C)(C)C(=O)N2C [Example 292, 2-fluoro-5-methoxy-N-[(3R)-1-methylpyrrolidin-3-yl]-4-[(4,4,6-trimethyl-5-oxo-2-propan-2-yl-2,6,9,11-tetrazabicyclo[5.4.0]undeca-7,9,11-trien-10-yl)amino]benzamide] | < 300
7 | CCN1CCC(NC(=O)c2ccc(Nc3ncc4c(n3)N(C3CCCC3)CC(C)(C)C(=O)N4C)c(OC)c2)CC1 [Example 350, 4-[(2-cyclopentyl-4,4,6-trimethyl-5-oxo-2,6,9,11-tetrazabicyclo[5.4.0]undeca-7,9,11-trien-10-yl)amino]-N-(1-ethyl-4-piperidyl)-3-methoxy-benzamide] | < 300
8 | CCN1CC[C@@H](NC(=O)c2ccc(Nc3ncc4c(n3)N(C3CCCCC3)CC3(CC3)C(=O)N4C)c(OC)c2)C1 [Example 441, 4-(9′-cyclohexyl-5′-methyl-6′-oxo-5′,6′,8′,9′-tetrahydrospiro[cyclopropane-1,7′-pyrimido[5,4-b][1,4]diazepine]-2′-ylamino)-N-[(3R)-1-ethylpyrrolidin-3-yl]-3-methoxy-benzamide] | < 300
9 | COc1cc(C(=O)N[C@@H]2CCN(C)C2)c(Cl)cc1Nc1ncc2c(n1)N(C1CCCC1)CCC(=O)N2C [Example 336, 2-chloro-4-[(2-cyclopentyl-6-methyl-5-oxo-2,6,9,11-tetrazabicyclo[5.4.0]undeca-7,9,11-trien-10-yl)amino]-5-methoxy-N-[(3R)-1-methylpyrrolidin-3-yl]benzamide] | < 300
10 | COc1cc(C(=O)NCC2(CN3CCCC3)CC2)c(F)cc1Nc1ncc2c(n1)N(C1CCCCC1)CC1(CC1)C(=O)N2C [Example 445, 4-(9′-cyclohexyl-5′-methyl-6′-oxo-5′,6′,8′,9′-tetrahydrospiro[cyclopropane-1,7′-pyrimido[5,4-b][1,4]diazepine]-2′-ylamino)-2-fluoro-5-methoxy-N-[[1-(pyrrolidin-1-ylmethyl)cyclopropyl]methyl]benzamide] | < 300
11 | C#CCN1CCC(=O)N(C)c2cnc(Nc3ccc(C(=O)NC4CCN(C)CC4)cc3OC)nc21 [Example 271, 3-methoxy-4-[(6-methyl-5-oxo-2-prop-2-ynyl-2,6,9,11-tetrazabicyclo[5.4.0]undeca-7,9,11-trien-10-yl)amino]-N-(1-methyl-4-piperidyl)benzamide] | < 30000
12 | CN(C)CCCNC(=O)c1ccc(Nc2ncc3c(n2)N(C2CCCC2)CC(C)(C)C(=O)N3C)c(Cl)c1 [Example 362, 3-chloro-4-[(2-cyclopentyl-4,4,6-trimethyl-5-oxo-2,6,9,11-tetrazabicyclo[5.4.0]undeca-7,9,11-trien-10-yl)amino]-N-(3-dimethylaminopropyl)benzamide] | < 300
13 | COc1cc(C(=O)NC2CCC(N3CCC3)CC2)ccc1Nc1ncc2c(n1)N(C1CCCC1)CC(C)(C)C(=O)N2C (centres unmarked) [Example 374, N-[4-(azetidin-1-yl)cyclohexyl]-4-[(2-cyclopentyl-4,4,6-trimethyl-5-oxo-2,6,9,11-tetrazabicyclo[5.4.0]undeca-7,9,11-trien-10-yl)amino]-3-methoxy-benzamide] | < 300
14 | CCN1CCC(NC(=O)c2cc(OC)c(Nc3ncc4c(n3)N(C3CCCCC3)CC3(CC3)C(=O)N4C)cc2F)CC1 [Example 443, 4-(9′-cyclohexyl-5′-methyl-6′-oxo-5′,6′,8′,9′-tetrahydrospiro[cyclopropane-1,7′-pyrimido[5,4-b][1,4]diazepine]-2′-ylamino)-N-(1-ethyl-4-piperidyl)-2-fluoro-5-methoxy-benzamide] | < 300
15 | CC(C)N1CC(C)(C)C(=O)N(C)c2cnc(Nc3cc(F)c(C(=O)NC4CCN(C)CC4)cc3Cl)nc21 [Example 289, 5-chloro-2-fluoro-N-(1-methyl-4-piperidyl)-4-[(4,4,6-trimethyl-5-oxo-2-propan-2-yl-2,6,9,11-tetrazabicyclo[5.4.0]undeca-7,9,11-trien-10-yl)amino]benzamide] | < 1000
16 | CC(C)N1CC(C)(C)C(=O)N(C)c2cnc(Nc3cc(F)c(C(=O)NC4CCC(N(C)C)CC4)cc3Cl)nc21 (centres unmarked) [Example 291, 5-chloro-N-(4-dimethylaminocyclohexyl)-2-fluoro-4-[(4,4,6-trimethyl-5-oxo-2-propan-2-yl-2,6,9,11-tetrazabicyclo[5.4.0]undeca-7,9,11-trien-10-yl)amino]benzamide] | < 300
17 | COc1cc(C(=O)NC2CCC(N(C)C)CC2)c(Cl)cc1Nc1ncc2c(n1)N(C1CCCC1)CCC(=O)N2C (centres unmarked) [Example 338, 2-chloro-4-[(2-cyclopentyl-6-methyl-5-oxo-2,6,9,11-tetrazabicyclo[5.4.0]undeca-7,9,11-trien-10-yl)amino]-N-(4-dimethylaminocyclohexyl)-5-methoxy-benzamide] | < 300
18 | COc1cc(C(=O)NCC2(CN3CCCC3)CC2)c(F)cc1Nc1ncc2c(n1)N(C1CCCCC1)CCC(=O)N2C [Example 419, 4-[(2-cyclohexyl-6-methyl-5-oxo-2,6,9,11-tetrazabicyclo[5.4.0]undeca-7,9,11-trien-10-yl)amino]-2-fluoro-5-methoxy-N-[[1-(pyrrolidin-1-ylmethyl)cyclopropyl]methyl]benzamide] | < 1000
19 | CN1CCC(NC(=O)c2cc(Cl)c(Nc3ncc4c(n3)N(C3CCCC3)CC3(CC3)C(=O)N4C)cc2F)CC1 [Example 389, 5-chloro-4-(9′-cyclopentyl-5′-methyl-6′-oxo-5′,6′,8′,9′-tetrahydrospiro[cyclopropane-1,7′-pyrimido[5,4-b][1,4]diazepine]-2′-ylamino)-2-fluoro-N-(1-methyl-4-piperidyl)benzamide] | < 300
20 | COc1cc(C(=O)NC2CCN(CC(C)C)CC2)ccc1Nc1ncc2c(n1)N(C1CCCC1)CCC(=O)N2C [Example 340, 4-[(2-cyclopentyl-6-methyl-5-oxo-2,6,9,11-tetrazabicyclo[5.4.0]undeca-7,9,11-trien-10-yl)amino]-3-methoxy-N-[1-(2-methylpropyl)-4-piperidyl]benzamide] | < 300
21 | CCC1(CC)CN(C2CCCC2)c2nc(Nc3ccc(C(=O)NCC(C)(C)CN4CCCC4)cc3OC)ncc2N(C)C1=O [Example 376, 4-[(2-cyclopentyl-4,4-diethyl-6-methyl-5-oxo-2,6,9,11-tetrazabicyclo[5.4.0]undeca-7,9,11-trien-10-yl)amino]-N-(2,2-dimethyl-3-pyrrolidin-1-yl-propyl)-3-methoxy-benzamide] | < 300
22 | CCN1CC[C@@H](NC(=O)c2ccc(Nc3ncc4c(n3)N(C3CCCC3)CC(C)(C)C(=O)N4C)c(OC)c2)C1 [Example 369, 4-[(2-cyclopentyl-4,4,6-trimethyl-5-oxo-2,6,9,11-tetrazabicyclo[5.4.0]undeca-7,9,11-trien-10-yl)amino]-N-[(3R)-1-ethylpyrrolidin-3-yl]-3-methoxy-benzamide] | < 300
23 | CN1C(=O)C2(CC2)CN(C2CCCC2)c2nc(Nc3cc(F)c(C(=O)NCCN4CCCC4)cc3F)ncc21 [Example 397, 4-(9′-cyclopentyl-5′-methyl-6′-oxo-5′,6′,8′,9′-tetrahydrospiro[cyclopropane-1,7′-pyrimido[5,4-b][1,4]diazepine]-2′-ylamino)-2,5-difluoro-N-(2-pyrrolidin-1-ylethyl)benzamide] | < 300
24 | COc1cc(C(=O)NCCN2CCCC2)c(F)cc1Nc1ncc2c(n1)N(C1CCCCC1)CC1(CC1)C(=O)N2C [Example 444, 4-(9′-cyclohexyl-5′-methyl-6′-oxo-5′,6′,8′,9′-tetrahydrospiro[cyclopropane-1,7′-pyrimido[5,4-b][1,4]diazepine]-2′-ylamino)-2-fluoro-5-methoxy-N-(2-pyrrolidin-1-ylethyl)benzamide] | < 300
25 | CN1CC[C@@H](NC(=O)c2cc(F)c(Nc3ncc4c(n3)N(C3CCCC3)CC3(CC3)C(=O)N4C)cc2F)C1 [Example 400, 4-(9′-cyclopentyl-5′-methyl-6′-oxo-5′,6′,8′,9′-tetrahydrospiro[cyclopropane-1,7′-pyrimido[5,4-b][1,4]diazepine]-2′-ylamino)-2,5-difluoro-N-[(3R)-1-methylpyrrolidin-3-yl]benzamide] | < 300
26 | CCN1CCC(NC(=O)c2cc(Cl)c(Nc3ncc4c(n3)N(C3CCCC3)CC3(CC3)C(=O)N4C)cc2F)CC1 [Example 393, 5-chloro-4-(9′-cyclopentyl-5′-methyl-6′-oxo-5′,6′,8′,9′-tetrahydrospiro[cyclopropane-1,7′-pyrimido[5,4-b][1,4]diazepine]-2′-ylamino)-N-(1-ethyl-4-piperidyl)-2-fluoro-benzamide] | < 300
